In ChEMBL document CHEMBL1201862, “PubChem BioAssay data set” (2004):
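Interpolation was linear, between the two tested concentrations surrounding the appropriate level; five concentrations were tested over 48 hours in 96-well plates. GI50 marks 50% less growth.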 Activity calls are given as the source filed them. No stated cut-off is given here; in the data, active = GI50 up to about 1.1 µM and inactive = higher.

What was measured:
Test in all cases: DTP human tumour cell line panel, 48 h
M14 = system: M14
HT-29 = system: HT-29
LXFL 529 = system: LXFL 529
OVCAR-4 = system: OVCAR-4
HOP-92 = system: HOP-92
EKVX = system: EKVX
HOP-18 = system: HOP-18
OVCAR-3 = system: OVCAR-3
NCI-H23 = system: NCI-H23
SW-620 = system: SW-620
SN12C = system: SN12C
K562 = system: K562
SK-MEL-2 = system: SK-MEL-2
U-251 = system: U-251
UACC-62 = system: UACC-62
SF-539 = system: SF-539
786-0 = system: 786-0
A549 = system: A549
SNB-19 = system: SNB-19
SF-268 = system: SF-268
KM-20L2 = system: KM-20L2
SNB-78 = system: SNB-78
IGROV-1 = system: IGROV-1
DLD-1 = system: DLD-1
LOX IMVI = system: LOX IMVI
SK-MEL-28 = system: SK-MEL-28
UO-31 = system: UO-31
HCT-116 = system: HCT-116
Malme-3M = system: Malme-3M
HCT-15 = system: HCT-15
OVCAR-8 = system: OVCAR-8
OVCAR-5 = system: OVCAR-5
KM12 = system: KM12
HL-60 = system: HL-60
NCI-H226 = system: NCI-H226
TK-10 = system: TK-10
SK-OV-3 = system: SK-OV-3
COLO 205 = system: COLO 205
HCC 2998 = system: HCC 2998
SK-MEL-5 = system: SK-MEL-5
UACC-257 = system: UACC-257
DMS-273 = system: DMS-273
A498 = system: A498
NCI-H460 = system: NCI-H460
SNB-75 = system: SNB-75
HOP-62 = system: HOP-62
MOLT-4 = system: MOLT-4
ACHN = system: ACHN
RXF 393 = system: RXF 393
SF-295 = system: SF-295
DMS-114 = system: DMS-114
CCRF-CEM = system: CCRF-CEM
NCI-H522 = system: NCI-H522
SR = system: SR
CAKI-1 = system: CAKI-1
RPMI-8226 = system: RPMI-8226
M19-MEL = system: M19-MEL

Cc1ccc(Oc2ccc(C(=O)c3cccc(C(=O)c4ccc(Oc5ccc(C)cc5)cc4)n3)cc2)cc1
GI50 (M14): > 100 µM (inactive)
GI50 (HT-29): > 100 µM (inactive)
GI50 (LXFL 529): > 100 µM (inactive)
GI50 (OVCAR-4): 71.8 µM (inactive)
GI50 (HOP-92): > 100 µM (inactive)
GI50 (EKVX): > 100 µM (inactive)
GI50 (HOP-18): > 100 µM (inactive)
GI50 (OVCAR-3): > 100 µM (inactive)
GI50 (NCI-H23): > 100 µM (inactive)
GI50 (SW-620): > 100 µM (inactive)
GI50 (SN12C): > 100 µM (inactive)
GI50 (K562): > 100 µM (inactive)
GI50 (SK-MEL-2): > 100 µM (inactive)
GI50 (U-251): > 100 µM (inactive)
GI50 (UACC-62): > 100 µM (inactive)
GI50 (SF-539): > 100 µM (inactive)
GI50 (786-0): > 100 µM (inactive)
GI50 (A549): > 100 µM (inactive)
GI50 (SNB-19): > 100 µM (inactive)
GI50 (SF-268): > 100 µM (inactive)
GI50 (KM-20L2): > 100 µM (inactive)
GI50 (SNB-78): > 100 µM (inactive)
GI50 (IGROV-1): > 100 µM (inactive)
GI50 (DLD-1): > 100 µM (inactive)
GI50 (LOX IMVI): > 100 µM (inactive)
GI50 (SK-MEL-28): > 100 µM (inactive)
GI50 (UO-31): > 100 µM (inactive)
GI50 (HCT-116): > 100 µM (inactive)
GI50 (Malme-3M): > 100 µM (inactive)
GI50 (HCT-15): > 100 µM
GI50 (OVCAR-8): > 100 µM (inactive)
GI50 (OVCAR-5): > 100 µM (inactive)
GI50 (KM12): > 100 µM (inactive)
GI50 (HL-60): > 100 µM (inactive)
GI50 (NCI-H226): > 100 µM (inactive)
GI50 (TK-10): > 100 µM (inactive)
GI50 (SK-OV-3): > 100 µM (inactive)
GI50 (COLO 205): > 100 µM (inactive)
GI50 (HCC 2998): > 100 µM (inactive)
GI50 (SK-MEL-5): > 100 µM (inactive)
GI50 (UACC-257): > 100 µM (inactive)
GI50 (DMS-273): > 100 µM (inactive)
GI50 (A498): > 100 µM (inactive)
GI50 (NCI-H460): > 100 µM (inactive)
GI50 (SNB-75): 42.2 µM (inactive)
GI50 (HOP-62): > 100 µM (inactive)
GI50 (MOLT-4): > 100 µM (inactive)
GI50 (ACHN): > 100 µM (inactive)
GI50 (RXF 393): > 100 µM (inactive)
GI50 (SF-295): > 100 µM (inactive)
GI50 (DMS-114): > 100 µM (inactive)
GI50 (CCRF-CEM): > 100 µM (inactive)
GI50 (NCI-H522): > 100 µM (inactive)
GI50 (SR): > 100 µM (inactive)
GI50 (CAKI-1): > 100 µM (inactive)

Cc1c2cc[n+](C)cc2c(C)c2c1[nH]c1ccc(OC(C)(C)C)cc12
GI50 (M14): > 100 µM (inactive)
GI50 (HT-29): > 100 µM (inactive)
GI50 (LXFL 529): > 100 µM (inactive)
GI50 (OVCAR-4): > 100 µM (inactive)
GI50 (HOP-92): > 100 µM (inactive)
GI50 (RPMI-8226): > 100 µM (inactive)
GI50 (HOP-18): > 100 µM (inactive)
GI50 (NCI-H23): > 100 µM (inactive)
GI50 (SW-620): > 100 µM (inactive)
GI50 (SN12C): > 100 µM (inactive)
GI50 (K562): > 100 µM (inactive)
GI50 (SK-MEL-2): > 100 µM (inactive)
GI50 (U-251): > 100 µM (inactive)
GI50 (UACC-62): > 100 µM (inactive)
GI50 (SF-539): > 100 µM (inactive)
GI50 (786-0): > 100 µM (inactive)
GI50 (A549): > 100 µM (inactive)
GI50 (M19-MEL): > 100 µM (inactive)
GI50 (SF-268): > 100 µM (inactive)
GI50 (SNB-78): > 100 µM (inactive)
GI50 (IGROV-1): > 100 µM (inactive)
GI50 (DLD-1): > 100 µM (inactive)
GI50 (LOX IMVI): > 100 µM (inactive)
GI50 (SK-MEL-28): > 100 µM (inactive)
GI50 (UO-31): > 100 µM (inactive)
GI50 (HCT-116): > 100 µM (inactive)
GI50 (Malme-3M): > 100 µM (inactive)
GI50 (HCT-15): > 100 µM
GI50 (OVCAR-8): > 100 µM (inactive)
GI50 (OVCAR-5): > 100 µM (inactive)
GI50 (KM12): > 100 µM (inactive)
GI50 (HL-60): > 100 µM (inactive)
GI50 (NCI-H226): > 100 µM (inactive)
GI50 (TK-10): > 100 µM (inactive)
GI50 (SK-OV-3): > 100 µM (inactive)
GI50 (COLO 205): > 100 µM (inactive)
GI50 (HCC 2998): > 100 µM (inactive)
GI50 (SK-MEL-5): > 100 µM (inactive)
GI50 (UACC-257): > 100 µM (inactive)
GI50 (DMS-273): > 100 µM (inactive)
GI50 (A498): > 100 µM (inactive)
GI50 (NCI-H460): > 100 µM (inactive)
GI50 (SNB-75): > 100 µM (inactive)
GI50 (HOP-62): > 100 µM (inactive)
GI50 (MOLT-4): > 100 µM (inactive)
GI50 (ACHN): > 100 µM (inactive)
GI50 (RXF 393): > 100 µM (inactive)
GI50 (SF-295): > 100 µM (inactive)
GI50 (DMS-114): > 100 µM (inactive)
GI50 (CCRF-CEM): > 100 µM (inactive)
GI50 (NCI-H522): > 100 µM (inactive)
GI50 (SR): > 100 µM (inactive)
GI50 (CAKI-1): > 100 µM (inactive)
